The values that follow come from ChEMBL document CHEMBL3352058, “Inhibition of microbial β-N-acetylhexosaminidases by 4-deoxy- and galacto-analogues of NAG-thiazoline” (Bioorg Med Chem Lett, 2014).

The nature of assay [1]: Inhibition of Talaromyces flavus beta-N-acetylhexosaminidase GH20 using p-nitrophenyl 2-acetamido-2-deoxy-beta-D-glucosaminide substrate at pH 7.0 and 25 degC.
Assay [2] can be described thus: Inhibition of Streptomyces plicatus beta-N-acetylhexosaminidase GH20 using p-nitrophenyl 2-acetamido-2-deoxy-beta-D-glucosaminide substrate at pH 7.0 and 25 degC.
Assay [3] can be described thus: Inhibition of Bacteroides thetaiotaomicron beta-N-acetylglucosaminidase GH84 using p-nitrophenyl 2-acetamido-2-deoxy-beta-D-glucosaminide substrate at pH 7.0 and 25 degC.

For the molecule `CC1=N[C@H]2[C@H](O[C@H](CO)C[C@@H]2O)S1`, the Ki (in general, a measure of affinity in units of concentration, obtained from inhibition or displacement) in assay [1] stood at 1890 µM; in assay [2] it was 9900 µM; in assay [3], 1830 µM.

Consider `CC1=N[C@@H]2[C@@H](O)[C@@H](O)[C@@H](CO)O[C@@H]2S1`, for which the Ki in assay [1] came out at 393 µM; in assay [2], 90.8 µM.

For the molecule `CC1=N[C@@H]2[C@@H](O)[C@H](O)[C@@H](CO)O[C@@H]2S1`, the inhibition constant (Ki) came out at 42.7 µM in assay [1], 24 µM in assay [2] and 0.029 µM in assay [3].
